How the values were obtained:
head & neck cancers = conditions: cis-platin+definitive RT, cCR achieved; cited from earlier work
[1] = system: locally advanced rectal cancer; conditions: cited from earlier work
[2] = biological target: T1, human liver IPdR-aldehyde oxidase (Homo sapiens, UniProt Q06278); conditions: low concentrations
T1 sequence (Q06278 1-1338): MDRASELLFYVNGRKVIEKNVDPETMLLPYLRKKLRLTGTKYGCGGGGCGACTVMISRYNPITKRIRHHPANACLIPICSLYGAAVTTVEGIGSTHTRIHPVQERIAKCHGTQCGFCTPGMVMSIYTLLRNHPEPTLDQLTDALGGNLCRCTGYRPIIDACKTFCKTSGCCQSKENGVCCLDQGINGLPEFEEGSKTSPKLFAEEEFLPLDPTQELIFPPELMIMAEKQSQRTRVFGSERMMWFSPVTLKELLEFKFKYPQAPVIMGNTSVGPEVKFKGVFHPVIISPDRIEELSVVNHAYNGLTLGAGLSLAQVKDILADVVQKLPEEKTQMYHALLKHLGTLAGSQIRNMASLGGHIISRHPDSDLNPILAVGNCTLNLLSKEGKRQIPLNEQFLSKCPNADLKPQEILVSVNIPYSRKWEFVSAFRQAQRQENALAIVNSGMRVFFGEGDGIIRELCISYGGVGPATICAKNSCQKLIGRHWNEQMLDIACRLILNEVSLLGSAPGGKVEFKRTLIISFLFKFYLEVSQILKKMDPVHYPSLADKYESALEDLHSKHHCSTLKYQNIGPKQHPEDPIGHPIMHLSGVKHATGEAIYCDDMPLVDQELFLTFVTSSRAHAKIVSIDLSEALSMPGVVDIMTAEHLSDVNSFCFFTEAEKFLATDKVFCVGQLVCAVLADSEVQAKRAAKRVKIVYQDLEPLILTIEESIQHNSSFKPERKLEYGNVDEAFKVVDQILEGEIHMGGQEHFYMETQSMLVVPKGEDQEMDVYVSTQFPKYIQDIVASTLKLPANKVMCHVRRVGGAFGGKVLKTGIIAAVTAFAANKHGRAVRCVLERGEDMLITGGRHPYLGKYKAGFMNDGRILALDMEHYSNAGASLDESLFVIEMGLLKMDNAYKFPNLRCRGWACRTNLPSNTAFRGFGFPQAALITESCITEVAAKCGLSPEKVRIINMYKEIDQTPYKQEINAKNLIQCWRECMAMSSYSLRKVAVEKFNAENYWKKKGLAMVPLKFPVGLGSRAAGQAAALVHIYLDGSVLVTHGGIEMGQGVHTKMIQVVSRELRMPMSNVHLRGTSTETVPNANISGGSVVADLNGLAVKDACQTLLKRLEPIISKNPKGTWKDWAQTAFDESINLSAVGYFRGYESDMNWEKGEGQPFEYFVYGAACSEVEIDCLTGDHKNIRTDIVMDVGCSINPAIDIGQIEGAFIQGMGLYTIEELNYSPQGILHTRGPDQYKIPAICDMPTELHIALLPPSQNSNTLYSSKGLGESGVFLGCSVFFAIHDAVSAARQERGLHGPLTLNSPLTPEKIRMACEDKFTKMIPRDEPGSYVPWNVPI

[3] = system: IPdR oxidase activity of human intestine cytosol

N.N.[Cl][Pt][Cl] [cis-platin, cis-diamminedichloroplatinum II]
cure rate (head & neck cancers): approximately 60%

O=C1[O][Pt]2([NH][C@@H]3CCCC[C@H]3[NH]2)[O]C1=O [oxaliplatin]
effect on pCR rate when added during pre-operative RT+FP ([1]; with increased normal tissue complications): without any improvement in pCR rate

Oc1ncnc2[nH]ncc12 [allopurinol]
effect on human liver IPdR-aldehyde oxidase [2]: not
effect on human small intestine IPdR oxidase activity [3]: not inhibited

CC1=CC(=O)c2ccccc2C1=O [menadione]
effect on human small intestine IPdR oxidase activity [3]: stimulated

CCCCCOC(=O)Nc1nc(=O)n([C@@H]2O[C@H](C)[C@@H](O)[C@H]2O)cc1F [capecitabine]
pCR rate ([1]; neoadjuvant capecitabine+RT, Stage III rectal patients): 10-15%

COc1ccc(C=O)cc1O [isovanillin]
effect on human liver IPdR-aldehyde oxidase [2]: inhibited
effect on human small intestine IPdR oxidase activity [3]: not inhibited
